The source made the active and inactive calls. The calls are words filed in the database; no cut-off is given here.
Key:
[1] = biological target: AMPK alpha2/beta2/gamma1 (Homo sapiens) (UniProt P54646+O43741+P54619); experiment: Activation of human recombinant AMPK A2/B2/G1 assessed as increase in AMPK phosphorylation using FL-peptide as substrate incubated for 120 mins by EZ reader method; format: protein-complex assay; conditions: filed as activator
L6 = experiment: Activation of AMPK alpha2beta2gamma1 in rat L6 cells assessed as increase in AMPK phosphorylation by ELISA assay; format: cell-based; conditions: filed as activator
Cytochrome P450 1A2 = biological target: T1, Cytochrome P450 1A2 (Homo sapiens, UniProt P05177); experiment: Inhibition of CYP1A2 in human liver microsomes using 7-ethoxyresorufin as substrate; format: ADME, Microsome
T1 sequence (P05177 whole entry): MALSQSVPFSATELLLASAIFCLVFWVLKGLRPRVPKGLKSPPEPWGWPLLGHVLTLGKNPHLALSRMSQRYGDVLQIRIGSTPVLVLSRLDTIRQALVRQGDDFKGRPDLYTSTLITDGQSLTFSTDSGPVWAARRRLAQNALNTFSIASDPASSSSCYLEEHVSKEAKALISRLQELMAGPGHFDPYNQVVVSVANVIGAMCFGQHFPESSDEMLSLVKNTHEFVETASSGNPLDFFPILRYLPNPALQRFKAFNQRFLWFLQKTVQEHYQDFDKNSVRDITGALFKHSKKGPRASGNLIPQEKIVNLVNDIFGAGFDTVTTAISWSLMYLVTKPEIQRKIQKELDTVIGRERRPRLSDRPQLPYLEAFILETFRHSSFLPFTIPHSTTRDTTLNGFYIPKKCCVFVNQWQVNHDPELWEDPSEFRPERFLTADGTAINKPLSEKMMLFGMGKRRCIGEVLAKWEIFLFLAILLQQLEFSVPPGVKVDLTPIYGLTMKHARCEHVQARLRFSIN

Cytochrome P450 2C9 = Cytochrome P450 2C9 (Homo sapiens, UniProt P11712); experiment: Inhibition of CYP2C9 in human liver microsomes using tolbutamide as substrate; format: ADME, Microsome
Sequence of Cytochrome P450 2C9 (P11712 whole entry): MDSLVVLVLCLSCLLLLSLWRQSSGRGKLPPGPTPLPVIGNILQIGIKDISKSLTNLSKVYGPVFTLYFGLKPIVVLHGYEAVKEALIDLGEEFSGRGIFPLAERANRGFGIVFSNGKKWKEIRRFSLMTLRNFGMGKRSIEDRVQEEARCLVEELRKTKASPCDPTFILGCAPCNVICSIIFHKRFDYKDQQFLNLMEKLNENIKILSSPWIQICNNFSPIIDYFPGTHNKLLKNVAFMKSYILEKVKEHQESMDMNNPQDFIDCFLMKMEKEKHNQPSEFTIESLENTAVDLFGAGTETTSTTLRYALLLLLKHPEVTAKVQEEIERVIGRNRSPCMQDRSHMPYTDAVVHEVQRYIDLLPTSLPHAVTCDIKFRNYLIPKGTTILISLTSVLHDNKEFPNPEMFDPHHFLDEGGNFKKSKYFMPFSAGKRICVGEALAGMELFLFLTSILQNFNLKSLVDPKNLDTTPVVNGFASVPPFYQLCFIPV

Cytochrome P450 2C19 = Cytochrome P450 2C19 (Homo sapiens, UniProt P33261); experiment: Inhibition of CYP2C19 in human liver microsomes using mephenytoin as substrate; format: ADME, Microsome
Sequence of Cytochrome P450 2C19 (P33261 whole entry): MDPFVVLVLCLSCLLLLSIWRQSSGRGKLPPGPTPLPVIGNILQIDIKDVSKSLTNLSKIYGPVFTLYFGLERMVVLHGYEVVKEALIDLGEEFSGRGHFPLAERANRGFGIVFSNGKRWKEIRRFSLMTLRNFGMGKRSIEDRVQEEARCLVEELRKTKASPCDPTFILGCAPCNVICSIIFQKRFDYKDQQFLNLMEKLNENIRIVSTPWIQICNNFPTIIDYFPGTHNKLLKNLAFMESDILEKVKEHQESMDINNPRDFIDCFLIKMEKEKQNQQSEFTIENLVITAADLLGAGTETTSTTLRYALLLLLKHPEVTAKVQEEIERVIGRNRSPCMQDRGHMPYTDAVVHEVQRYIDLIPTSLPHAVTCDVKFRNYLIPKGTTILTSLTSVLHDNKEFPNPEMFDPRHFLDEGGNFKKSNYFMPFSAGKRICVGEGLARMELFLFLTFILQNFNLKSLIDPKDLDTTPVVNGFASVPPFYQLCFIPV

Cytochrome P450 2D6 = Cytochrome P450 2D6 (Homo sapiens, UniProt P10635); experiment: Inhibition of CYP2D6 in human liver microsomes using dextromethorphan as substrate; format: ADME, Microsome
Sequence of Cytochrome P450 2D6 (P10635 whole entry): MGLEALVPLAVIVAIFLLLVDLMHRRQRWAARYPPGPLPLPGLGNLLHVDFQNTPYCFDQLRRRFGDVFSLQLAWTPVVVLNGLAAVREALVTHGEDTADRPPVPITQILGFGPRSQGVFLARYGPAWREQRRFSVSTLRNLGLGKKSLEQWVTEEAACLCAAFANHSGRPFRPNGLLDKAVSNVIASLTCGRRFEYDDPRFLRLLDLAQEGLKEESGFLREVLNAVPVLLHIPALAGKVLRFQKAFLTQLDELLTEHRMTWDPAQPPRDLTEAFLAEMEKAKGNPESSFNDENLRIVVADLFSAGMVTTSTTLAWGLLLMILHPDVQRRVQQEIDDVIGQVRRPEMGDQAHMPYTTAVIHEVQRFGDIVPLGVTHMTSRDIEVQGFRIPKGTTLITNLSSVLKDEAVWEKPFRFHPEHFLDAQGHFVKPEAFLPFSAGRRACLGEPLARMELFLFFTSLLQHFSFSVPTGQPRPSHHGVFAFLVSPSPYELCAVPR

Cytochrome P450 3A4 = Cytochrome P450 3A4 (Homo sapiens, UniProt P08684); experiment: Inhibition of CYP3A4 in human liver microsomes using terfenedine as substrate; format: ADME, Microsome
Sequence of Cytochrome P450 3A4 (P08684 whole entry): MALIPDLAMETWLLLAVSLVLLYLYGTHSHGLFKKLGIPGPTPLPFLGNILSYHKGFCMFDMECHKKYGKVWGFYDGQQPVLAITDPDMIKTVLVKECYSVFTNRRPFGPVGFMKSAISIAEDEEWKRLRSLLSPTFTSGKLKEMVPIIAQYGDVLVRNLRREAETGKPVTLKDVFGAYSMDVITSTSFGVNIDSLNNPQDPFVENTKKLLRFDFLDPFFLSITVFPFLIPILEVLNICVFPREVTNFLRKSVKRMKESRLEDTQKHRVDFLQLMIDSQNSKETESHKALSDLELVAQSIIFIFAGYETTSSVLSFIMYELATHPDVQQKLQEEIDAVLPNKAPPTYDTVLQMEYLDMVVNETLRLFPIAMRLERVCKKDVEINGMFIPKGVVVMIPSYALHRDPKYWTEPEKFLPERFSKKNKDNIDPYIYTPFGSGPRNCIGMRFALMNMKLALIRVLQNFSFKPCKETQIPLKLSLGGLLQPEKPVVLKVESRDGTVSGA

[2] = Metabolic stability in human liver microsomes assessed as compound remaining incubated for 30 mins; format: ADME, Microsome; conditions: read-out: Stability
[3] = Metabolic stability in rat liver microsomes assessed as compound remaining incubated for 30 mins; format: ADME, Microsome; conditions: read-out: Stability
[4] = Protein binding in serum (unknown origin) assessed as free fraction by equilibrium dialysis method; format: ADME, cell-free
[5] = Total clearance in rat at 0.5 mg/kg,iv; format: ADME, organism-based; conditions: in vivo
[6] = AUC in rat at 1 mg/kg,po; format: ADME, organism-based; set-up: dose 1 mg/kg, route po; conditions: in vivo
[7] = Cmax in rat at 0.5 mg/kg,iv; format: ADME, organism-based; set-up: dose 0.5 mg/kg, route iv; conditions: in vivo
[8] = […] in rat liver at 0.5 mg/kg,iv; format: ADME, organism-based
[9] = […] in rat muscle tissue at 0.5 mg/kg,iv; format: ADME, organism-based
Mus musculus [10] = experiment: Antidiabetic activity against diabetic KKAy mouse model assessed as increase in ACC phosphorylation in skeletal muscle at 0.3 to 3 mg/kg,po bid; format: functional, organism-based; conditions: dose 0.3-3 mg/kg
Mus musculus [11] = experiment: Antidiabetic activity against diabetic KKAy mouse model assessed as acute glucose lowering effect at 0.3 to 3 mg/kg,po bid; format: functional, organism-based; conditions: dose 0.3-3 mg/kg
Mus musculus [12] = experiment: Antidiabetic activity against diabetic KKAy mouse model assessed as decrease in HbA1c level at 0.3 to 3 mg/kg,po bid observed upto 21 days; format: functional, organism-based; conditions: dose 0.3-3 mg/kg, time <= 21.0 day
Mus musculus [13] = experiment: Antidiabetic activity against diabetic KKAy mouse model assessed as decrease in plasma glucose level at 0.3 to 3 mg/kg,po bid observed upto 21 days; format: functional, organism-based; conditions: dose 0.3-3 mg/kg, time <= 21.0 day

Sequence of AMPK alpha2/beta2/gamma1 (Homo sapiens) (O43741 whole entry, looked up): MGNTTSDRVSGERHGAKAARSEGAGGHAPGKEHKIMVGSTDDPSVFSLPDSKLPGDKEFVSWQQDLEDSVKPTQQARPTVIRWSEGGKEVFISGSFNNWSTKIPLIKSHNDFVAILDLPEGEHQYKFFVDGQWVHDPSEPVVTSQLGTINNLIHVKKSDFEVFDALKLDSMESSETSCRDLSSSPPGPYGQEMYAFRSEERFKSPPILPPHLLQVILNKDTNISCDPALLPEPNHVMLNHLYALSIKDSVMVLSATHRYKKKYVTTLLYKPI
Sequence of AMPK alpha2/beta2/gamma1 (Homo sapiens) (P54619 whole entry, looked up): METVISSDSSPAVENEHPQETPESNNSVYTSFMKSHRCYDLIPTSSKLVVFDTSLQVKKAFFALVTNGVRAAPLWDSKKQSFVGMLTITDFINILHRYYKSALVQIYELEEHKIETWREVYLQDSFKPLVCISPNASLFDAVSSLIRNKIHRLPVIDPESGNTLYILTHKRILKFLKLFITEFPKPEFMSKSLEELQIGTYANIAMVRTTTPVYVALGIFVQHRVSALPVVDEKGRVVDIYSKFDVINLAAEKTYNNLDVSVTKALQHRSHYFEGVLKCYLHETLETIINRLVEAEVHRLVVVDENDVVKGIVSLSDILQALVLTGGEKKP
Sequence of AMPK alpha2/beta2/gamma1 (Homo sapiens) (P54646 whole entry, looked up): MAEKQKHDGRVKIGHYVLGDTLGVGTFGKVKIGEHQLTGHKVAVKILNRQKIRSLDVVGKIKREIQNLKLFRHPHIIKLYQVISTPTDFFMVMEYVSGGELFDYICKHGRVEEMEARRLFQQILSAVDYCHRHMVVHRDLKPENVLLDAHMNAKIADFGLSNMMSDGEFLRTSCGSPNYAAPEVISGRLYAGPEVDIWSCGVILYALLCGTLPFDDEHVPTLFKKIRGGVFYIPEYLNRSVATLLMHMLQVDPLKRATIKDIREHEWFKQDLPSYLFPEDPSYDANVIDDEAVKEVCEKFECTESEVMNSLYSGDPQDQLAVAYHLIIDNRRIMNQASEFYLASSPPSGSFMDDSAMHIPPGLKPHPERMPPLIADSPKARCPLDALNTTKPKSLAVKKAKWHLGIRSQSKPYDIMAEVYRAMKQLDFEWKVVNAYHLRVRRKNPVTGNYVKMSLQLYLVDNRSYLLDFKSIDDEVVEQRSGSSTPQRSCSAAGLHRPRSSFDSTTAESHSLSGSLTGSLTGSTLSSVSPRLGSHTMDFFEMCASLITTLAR

SMILES: O[C@@H]1CO[C@H]2[C@@H]1OC[C@H]2Oc1nc2nc(NCCCc3ccccc3)c(Cl)cc2[nH]1
- EC150 [1]: 15 µM

SMILES: O[C@@H]1CO[C@H]2[C@@H]1OC[C@H]2Oc1nc2nc(N[C@H]3CCc4ccccc43)c(Cl)cc2[nH]1
- EC150 [1]: 0.0031 µM

SMILES: O[C@@H]1CO[C@H]2[C@@H]1OC[C@H]2Oc1nc2nc(N[C@H]3CCc4cccc(F)c43)c(Cl)cc2[nH]1
- EC150 [1]: 0.002 µM
- EC150 (L6): 1.06 µM

SMILES: O[C@@H]1CO[C@H]2[C@@H]1OC[C@H]2Oc1nc2nc(NCc3ccccc3F)c(Cl)cc2[nH]1
- EC150 [1]: 0.048 µM

SMILES: COCCOc1cc(F)c2c(c1)CC[C@@H]2Nc1nc2nc(O[C@@H]3CO[C@H]4[C@@H]3OC[C@H]4O)[nH]c2cc1Cl
- EC150 [1]: 0.0016 µM
- EC150 (L6): 0.0443 µM
- IC50 (Cytochrome P450 1A2): > 20 µM
- IC50 (Cytochrome P450 2C9): > 20 µM
- IC50 (Cytochrome P450 2C19): > 20 µM
- IC50 (Cytochrome P450 2D6): > 20 µM
- IC50 (Cytochrome P450 3A4): > 20 µM
- remaining at 0.5 h [2]: 91%
- remaining at 0.5 h [3]: 81%
- fraction unbound [4]: 0.031
- clearance [5]: 9.02 mL/min/kg
- AUC [6]: 347 ng·h/mL
- Cmax [7]: 65.4 ng/mL
- Kp [8]: 5.64
- Kp [9]: 1.51
- Activity (Mus musculus [10]): Dose-Dependent Effect
- Activity (Mus musculus [11]): Active
- Activity (Mus musculus [12]): Dose-Dependent Effect
- Activity (Mus musculus [13]): Active

SMILES: Cn1cc(-c2cc(F)c3c(c2)CC[C@@H]3Nc2nc3nc(O[C@@H]4CO[C@H]5[C@@H]4OC[C@H]5O)[nH]c3cc2Cl)cn1
- EC150 [1]: 0.0044 µM
- EC150 (L6): 0.0847 µM

SMILES: O[C@@H]1CO[C@H]2[C@@H]1OC[C@H]2Oc1nc2nc(NCc3ccccc3)c(Cl)cc2[nH]1
- EC150 [1]: 0.16 µM

SMILES: OCc1ccccc1CNc1nc2nc(O[C@@H]3CO[C@H]4[C@@H]3OC[C@H]4O)[nH]c2cc1Cl
- EC150 [1]: 9.5 µM

SMILES: CN(Cc1ccccc1)c1nc2nc(O[C@@H]3CO[C@H]4[C@@H]3OC[C@H]4O)[nH]c2cc1Cl
- EC150 [1]: 4.9 µM

SMILES: CS(=O)(=O)c1ccccc1CNc1nc2nc(O[C@@H]3CO[C@H]4[C@@H]3OC[C@H]4O)[nH]c2cc1Cl
- EC150 [1]: 23 µM

SMILES: CC(=O)Nc1cc(F)c2c(c1)CC[C@@H]2Nc1nc2nc(O[C@@H]3CO[C@H]4[C@@H]3OC[C@H]4O)[nH]c2cc1Cl
- EC150 [1]: 0.0047 µM
- EC150 (L6): 0.584 µM

SMILES: O[C@@H]1CO[C@H]2[C@@H]1OC[C@H]2Oc1nc2nc(NCc3ccccc3C(F)(F)F)c(Cl)cc2[nH]1
- EC150 [1]: 8.9 µM
